Source: patent US20130123355A1, “Fatty acids and metal ions compositions and uses thereof” (priority 2011, published 2013)

Assays:
[1] = test system: Patients presenting symptoms of depression; experiment: Hamilton Depression Rating scale and Beck Depression Inventory in depression; type: in vivo, human; conditions: 113 mg elemental Li 3 to 4 times a day for two weeks, with standard of care, compared with lithium carbonate or the fatty acid alone
Experimental: Patients presenting symptoms of depression, in addition to being provided standard of care for depression, are prescribed Mg-DHA or Mg Citrate capsules formulated to provide 150 mg of elemental magnesium, or DHA capsules for two weeks when recovery from depression is assessed.
Patients presenting symptoms of depression, in addition to being provided standard of care for depression, are prescribed Mg-DHA-LysoPC or Mg Citrate capsules formulated to provide 150 mg of elemental magnesium, or DHA-LysoPC capsules for two weeks when recovery from depression is assessed.
Patients presenting symptoms of depression, in addition to being provided standard of care for depression, are prescribed Mg-EPA or Mg Citrate capsules formulated to provide 150 mg of elemental magnesium, or EPA capsules for two weeks when recovery from depression is assessed.
(§1) Patients presenting symptoms of depression, in addition to being provided standard of care for depression, are prescribed Zn-DHA or zinc gluconate capsules formulated to provide a daily dosage of 30 mg of elemental zinc, or DHA capsules for two weeks when recovery from depression is assessed.
as §1, with “Zn-DHA-LysoPC” for “Zn-DHA”, “DHA-LysoPC” for “DHA”
Patients presenting symptoms of depression, in addition to being provided standard of care for depression, are prescribed Zn-EPA or zinc gluconate capsules that provide a daily dosage of 30 mg of elemental Zn, or EPA capsules for two weeks when recovery from depression is assessed.

[2] = Li levels in cerebrospinal fluid of rats fed Li compositions; type: in vivo, Sprague-Dawley rats; conditions: oral gavage, about 20 mg elemental Li per Kg per day for 3 weeks, compared with lithium carbonate
Experimental: Sprague-Dawley rats are fed various […] compositions by oral gavage so as to provide about 20 mg of elemental Li per Kg per day for 3 weeks. The lithium compositions include Li-DHA, Li-DHA-LysoPC and Li-EPA. Control rats were administered equivalent molar amount of Lithium carbonate. Cerebrospinal fluid is collected at the end of the treatment, and lithium is measured by atomic absorption spectroscopy.

C57BL/6J mice [3] = experiment: d-amphetamine induced hyperlocomotion, supplemented diet; type: in vivo; conditions: about 15.5 mg/Kg/day elemental lithium, 0.5 mg/Kg d-amphetamine on days 0, 7, 14, 21, compared with the fatty acid alone or lithium chloride
Experimental: C57BL/6J mice are fed diet supplemented with Li-DHA, lithium chloride, or DHA. On Li-DHA or lithium chloride supplemented diet, mice consume, on an average, about 15.5 mg/Kg/day of elemental lithium, on a feeding schedule so as to maintain 85% of its free-feeding weight. […] On 0, 7, 14, and 21 days of starting the supplement diet, mice are injected with 0.5 mg/Kg d-amphetamine and observed for hyperlocomotion using automated video recording device.
C57BL/6J mice are fed diet supplemented with Li-DHA-lysoPC, lithium chloride, or DHA-lysoPC. On Li-DHA-lysoPC or lithium chloride supplemented diet, mice consume, on an average, about 15.5 mg/Kg/day of elemental lithium, on a feeding schedule so as to maintain 85% of its free-feeding weight. […] On 0, 7, 14, and 21 days of starting the supplement diet, mice are injected with 0.5 mg/Kg d-amphetamine and observed for hyperlocomotion using automated video recording device.
C57BL/6J mice are fed diet supplemented with Li-EPA, lithium chloride, or EPA. On Li-EPA or lithium chloride supplemented diet, mice consume, on an average, about 15.5 mg/Kg/day of elemental lithium, on a feeding schedule so as to maintain 85% of its free-feeding weight. […] On 0, 7, 14, and 21 days of starting the supplement diet, mice are injected with 0.5 mg/Kg d-amphetamine and observed for hyperlocomotion using automated video recording device.

[4] = test system: Patients presenting symptoms of bipolar disorder; experiment: Hamilton Depression Rating scale, Beck Depression Inventory and Young Mania Rating Scale in bipolar disorder; type: in vivo, human; conditions: 113 mg elemental Li 3 to 4 times a day for two weeks, with standard of care, compared with lithium carbonate or the fatty acid alone
Sprague-Dawley rats = experiment: Forced Swim Test; type: in vivo; conditions: diet, about 15.5 mg/Kg/day elemental lithium, compared with the fatty acid alone or lithium carbonate
From the text: Sprague-Dawley rats are fed diet supplemented with Mg-DHA, Mg Citrate, or DHA. […] Various established parameters of antidepressant activity including reduced immobility time, increased swimming, and increased climbing behavior are quantitated to assess the antidepressant activity.
Sprague-Dawley rats are fed diet supplemented with Mg-DHA-LysoPC, Mg Citrate, or DHA-lysoPC. […] Various established parameters of antidepressant activity including reduced immobility time, increased swimming, and increased climbing behavior are quantitated to assess the antidepressant activity.
Sprague-Dawley rats are fed diet supplemented with Mg-EPA, Mg Citrate, or EPA. […] Various established parameters of antidepressant activity including reduced immobility time, increased swimming, and increased climbing behavior are quantitated to assess the antidepressant activity.
(§2) Sprague-Dawley rats are fed diet supplemented with Zn-DHA, Zinc gluconate, or DHA. On Zn-DHA or Zinc gluconate supplemented diet, rats consume about 1 mg/kg body weight/day of elemental zinc, on a feeding schedule so as to maintain 85% of its free-feeding weight. […] Various established parameters of antidepressant activity including reduced immobility time, increased swimming, and increased climbing behavior are quantitated to assess the antidepressant activity.
as §2, with “Zn-DHA-lysoPC, zinc” for “Zn-DHA, Zinc”, “Zn-DHA-lysoPC” for “Zn-DHA”, “zinc” for “Zinc”
as §2, with “Zn-EPA, zinc” for “Zn-DHA, Zinc”, “EPA.” for “DHA.”, “Zn-EPA” for “Zn-DHA”, “zinc” for “Zinc”
Sprague-Dawley rats are fed diet supplemented with Li-DHA, lithium carbonate, or DHA. […] Various established parameters of antidepressant activity including reduced immobility time, increased swimming, and increased climbing behavior are quantitated to assess the antidepressant activity.
Sprague-Dawley rats are fed diet supplemented with Li-DHA-lysoPC, lithium carbonate, or DHA. […] Various established parameters of antidepressant activity including reduced immobility time, increased swimming, and increased climbing behavior are quantitated to assess the antidepressant activity.
Sprague-Dawley rats are fed diet supplemented with Li-EPA, lithium carbonate, or EPA. […] Various established parameters of antidepressant activity including reduced immobility time, increased swimming, and increased climbing behavior are quantitated to assess the antidepressant activity.

C57BL/6J mice [5] = experiment: d-amphetamine induced hyperlocomotion, acute injection; type: in vivo; conditions: injected 15.5 mg/Kg elemental lithium fifteen minutes after d-amphetamine (0.5 mg/Kg), observed 120 minutes, compared with the fatty acid alone or lithium chloride
Experimental: C57BL/6J mice are injected with d-amphetamine (0.5 mg/Kg) and increased locomotion is measured. Fifteen minutes later, Li-DHA, or lithium chloride dose is injected to deliver 15.5 mg/Kg elemental lithium. […] Subsequently, the mice are observed for hyperlocomotion for the next 120 minutes using automated video recording device.
C57BL/6J mice are injected with d-amphetamine (0.5 mg/Kg) and increased locomotion is measured. Fifteen minutes later, Li-DHA-lysoPC, or lithium chloride dose is injected to deliver 15.5 mg/Kg elemental lithium. […] Subsequently, the mice are observed for hyperlocomotion for the next 120 minutes using automated video recording device.
C57BL/6J mice are injected with d-amphetamine (0.5 mg/Kg) and increased locomotion is measured. Fifteen minutes later, Li-EPA, or lithium chloride dose is injected to deliver 15.5 mg/Kg elemental lithium. […] Subsequently, the mice are observed for hyperlocomotion for the next 120 minutes using automated video recording device.

[6] = intravenous infusion for 5 days; cited from earlier work

Compound	Hamilton Depression Rating scale and Beck Depression Inventory scores [1]	CSF levels of lithium [2]	induced hyperlocomotion (C57BL/6J mice [3])	Hamilton Depression Rating scale, Beck Depression Inventory and Young Mania Rating Scale scores [4]	immobility time (Sprague-Dawley rats)	swimming and climbing behavior (Sprague-Dawley rats)	induced hyperlocomotion (C57BL/6J mice [5])	Mg levels in the brain [6]	increase of blood levels of magnesium [6] [fold]
CC/C=C\C/C=C\C/C=C\C/C=C\C/C=C\CCCC(=O)[O-].[Li+] [Li-EPA]	statistically significant improvement	higher	lower levels	statistically significant improvement	reduction	significant increase	lower levels		
O=S(=O)([O-])[O-].[Mg+2] [magnesium sulfate]								failed to increase	3
CC/C=C\C/C=C\C/C=C\C/C=C\C/C=C\C/C=C\CCC(=O)[O-].[Li+] [Li-DHA]	statistically significant improvement	higher	lower levels	statistically significant improvement	reduction	significant increase	lower levels		
